Measured values from PubChem BioAssay (NCI).
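The compound was tested at five concentrations on cells cultured in 96-well plates, with a 48-hour exposure period. GI50: concentration for 50% inhibition of growth. The concentration for full growth arrest is given as TGI.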

Assays:
Assay in all cases: NCI tumour cell line growth inhibition, 48 h
A498 renal = tested on: A498 renal
A549 NSCLC = tested on: A549 NSCLC
ACHN renal = tested on: ACHN renal
CAKI-1 renal = tested on: CAKI-1 renal
CCRF-CEM leukemia = tested on: CCRF-CEM leukemia
COLO 205 colon = tested on: COLO 205 colon
DU-145 prostate = tested on: DU-145 prostate
EKVX NSCLC = tested on: EKVX NSCLC
HCC-2998 colon = tested on: HCC-2998 colon
HCT-116 colon = tested on: HCT-116 colon
HCT-15 colon = tested on: HCT-15 colon
HL-60(TB) leukemia = tested on: HL-60(TB) leukemia
HOP-62 NSCLC = tested on: HOP-62 NSCLC
HOP-92 NSCLC = tested on: HOP-92 NSCLC
HS 578T breast = tested on: HS 578T breast
HT29 colon = tested on: HT29 colon
IGROV1 ovarian = tested on: IGROV1 ovarian
K-562 leukemia = tested on: K-562 leukemia
KM12 colon = tested on: KM12 colon
LOX IMVI melanoma = tested on: LOX IMVI melanoma
M14 melanoma = tested on: M14 melanoma
MALME-3M melanoma = tested on: MALME-3M melanoma
MCF7 breast = tested on: MCF7 breast
MDA-MB-231 breast = tested on: MDA-MB-231 breast
MDA-MB-435 = tested on: MDA-MB-435
MOLT-4 leukemia = tested on: MOLT-4 leukemia
NCI-H226 lung = tested on: NCI-H226 lung
NCI-H23 lung = tested on: NCI-H23 lung
NCI-H460 lung = tested on: NCI-H460 lung
NCI-H522 lung = tested on: NCI-H522 lung
NCI/ADR-RES ovarian = tested on: NCI/ADR-RES ovarian
OVCAR-3 ovarian = tested on: OVCAR-3 ovarian
OVCAR-4 ovarian = tested on: OVCAR-4 ovarian
OVCAR-5 ovarian = tested on: OVCAR-5 ovarian
OVCAR-8 ovarian = tested on: OVCAR-8 ovarian
PC-3 prostate = tested on: PC-3 prostate
RPMI-8226 leukemia = tested on: RPMI-8226 leukemia
RXF 393 renal = tested on: RXF 393 renal
SF-268 CNS = tested on: SF-268 CNS
SF-295 CNS = tested on: SF-295 CNS
SF-539 CNS = tested on: SF-539 CNS
SK-MEL-2 melanoma = tested on: SK-MEL-2 melanoma
SK-MEL-28 melanoma = tested on: SK-MEL-28 melanoma
SK-MEL-5 melanoma = tested on: SK-MEL-5 melanoma
SN12C renal = tested on: SN12C renal
SNB-19 CNS = tested on: SNB-19 CNS
SNB-75 CNS = tested on: SNB-75 CNS
SR leukemia = tested on: SR leukemia
SW-620 colon = tested on: SW-620 colon
T-47D breast = tested on: T-47D breast
TK-10 renal = tested on: TK-10 renal
U251 CNS = tested on: U251 CNS
UACC-257 melanoma = tested on: UACC-257 melanoma
UACC-62 melanoma = tested on: UACC-62 melanoma
UO-31 renal = tested on: UO-31 renal
786-0 renal = tested on: 786-0 renal
SK-OV-3 ovarian = tested on: SK-OV-3 ovarian

SMILES: O=C(Nc1ccc(-n2cc(-c3ccncc3)c(-c3ccc(O)c(Cl)c3)n2)cc1)c1cc(C(F)(F)F)cc(C(F)(F)F)c1
- GI50 (A498 renal): 14.1 µM
- TGI (A498 renal): > 25 µM
- GI50 (A549 NSCLC): 9.11 µM
- TGI (A549 NSCLC): > 25 µM
- GI50 (ACHN renal): 8.41 µM
- TGI (ACHN renal): > 25 µM
- GI50 (CAKI-1 renal): 6.57 µM
- TGI (CAKI-1 renal): > 25 µM
- GI50 (CCRF-CEM leukemia): 4.09 µM
- TGI (CCRF-CEM leukemia): 21.8 µM
- GI50 (COLO 205 colon): 10.8 µM
- TGI (COLO 205 colon): > 25 µM
- GI50 (DU-145 prostate): 9.69 µM
- TGI (DU-145 prostate): > 25 µM
- GI50 (EKVX NSCLC): 11.1 µM
- TGI (EKVX NSCLC): > 25 µM
- GI50 (HCC-2998 colon): 9.89 µM
- TGI (HCC-2998 colon): > 25 µM
- GI50 (HCT-116 colon): 6.24 µM
- TGI (HCT-116 colon): > 25 µM
- GI50 (HCT-15 colon): 4.84 µM
- TGI (HCT-15 colon): 15.5 µM
- GI50 (HL-60(TB) leukemia): 5.8 µM
- TGI (HL-60(TB) leukemia): 18 µM
- GI50 (HOP-62 NSCLC): 12.5 µM
- TGI (HOP-62 NSCLC): > 25 µM
- GI50 (HOP-92 NSCLC): 1.04 µM
- TGI (HOP-92 NSCLC): 13.7 µM
- GI50 (HS 578T breast): 6.1 µM
- TGI (HS 578T breast): > 25 µM
- GI50 (HT29 colon): 5.01 µM
- TGI (HT29 colon): 13.4 µM
- GI50 (IGROV1 ovarian): 12.7 µM
- TGI (IGROV1 ovarian): > 25 µM
- GI50 (K-562 leukemia): 4.75 µM
- TGI (K-562 leukemia): > 25 µM
- GI50 (KM12 colon): 7.85 µM
- TGI (KM12 colon): > 25 µM
- GI50 (LOX IMVI melanoma): 5.59 µM
- TGI (LOX IMVI melanoma): > 25 µM
- GI50 (M14 melanoma): 3.58 µM
- TGI (M14 melanoma): 9.58 µM
- GI50 (MALME-3M melanoma): 4.66 µM
- TGI (MALME-3M melanoma): 16.7 µM
- GI50 (MCF7 breast): 8.46 µM
- TGI (MCF7 breast): > 25 µM
- GI50 (MDA-MB-231 breast): 2.92 µM
- TGI (MDA-MB-231 breast): 6.8 µM
- GI50 (MDA-MB-435): 5.79 µM
- TGI (MDA-MB-435): > 25 µM
- GI50 (MOLT-4 leukemia): 3.89 µM
- TGI (MOLT-4 leukemia): 15.5 µM
- GI50 (NCI-H226 lung): > 25 µM
- TGI (NCI-H226 lung): > 25 µM
- GI50 (NCI-H23 lung): 9.8 µM
- TGI (NCI-H23 lung): > 25 µM
- GI50 (NCI-H460 lung): 7.23 µM
- TGI (NCI-H460 lung): > 25 µM
- GI50 (NCI-H522 lung): 4.6 µM
- TGI (NCI-H522 lung): > 25 µM
- GI50 (NCI/ADR-RES ovarian): 11.1 µM
- TGI (NCI/ADR-RES ovarian): > 25 µM
- GI50 (OVCAR-3 ovarian): 7.42 µM
- TGI (OVCAR-3 ovarian): > 25 µM
- GI50 (OVCAR-4 ovarian): 8.12 µM
- TGI (OVCAR-4 ovarian): > 25 µM
- GI50 (OVCAR-5 ovarian): 9.18 µM
- TGI (OVCAR-5 ovarian): > 25 µM
- GI50 (OVCAR-8 ovarian): 11.8 µM
- TGI (OVCAR-8 ovarian): > 25 µM
- GI50 (PC-3 prostate): 5.02 µM
- TGI (PC-3 prostate): > 25 µM
- GI50 (RPMI-8226 leukemia): 2.34 µM
- TGI (RPMI-8226 leukemia): 13.5 µM
- GI50 (RXF 393 renal): 3.1 µM
- TGI (RXF 393 renal): 6.58 µM
- GI50 (SF-268 CNS): 9.33 µM
- TGI (SF-268 CNS): > 25 µM
- GI50 (SF-295 CNS): 4.71 µM
- TGI (SF-295 CNS): 15 µM
- GI50 (SF-539 CNS): 3.57 µM
- TGI (SF-539 CNS): 12.9 µM
- GI50 (SK-MEL-2 melanoma): 5.08 µM
- TGI (SK-MEL-2 melanoma): 12.7 µM
- GI50 (SK-MEL-28 melanoma): 6.07 µM
- TGI (SK-MEL-28 melanoma): 23.3 µM
- GI50 (SK-MEL-5 melanoma): 5.68 µM
- TGI (SK-MEL-5 melanoma): 19 µM
- GI50 (SN12C renal): 8.93 µM
- TGI (SN12C renal): > 25 µM
- GI50 (SNB-19 CNS): 11.9 µM
- TGI (SNB-19 CNS): > 25 µM
- GI50 (SNB-75 CNS): 3.73 µM
- TGI (SNB-75 CNS): > 25 µM
- GI50 (SR leukemia): 8.79 µM
- TGI (SR leukemia): > 25 µM
- GI50 (SW-620 colon): 11.1 µM
- TGI (SW-620 colon): > 25 µM
- GI50 (T-47D breast): 12.2 µM
- TGI (T-47D breast): > 25 µM
- GI50 (TK-10 renal): 5.87 µM
- TGI (TK-10 renal): > 25 µM
- GI50 (U251 CNS): 4.55 µM
- TGI (U251 CNS): > 25 µM
- GI50 (UACC-257 melanoma): 14.7 µM
- TGI (UACC-257 melanoma): > 25 µM
- GI50 (UACC-62 melanoma): 5.35 µM
- TGI (UACC-62 melanoma): 12.9 µM
- GI50 (UO-31 renal): 5.3 µM
- TGI (UO-31 renal): > 25 µM

SMILES: Fc1c(F)c(F)c2c(c1F)CSc1nc3ccccc3n1-2
- TGI (786-0 renal): > 100 µM
- TGI (A498 renal): > 100 µM
- TGI (A549 NSCLC): > 100 µM
- TGI (ACHN renal): > 100 µM
- TGI (CAKI-1 renal): > 100 µM
- TGI (CCRF-CEM leukemia): > 100 µM
- TGI (COLO 205 colon): > 100 µM
- TGI (DU-145 prostate): > 100 µM
- TGI (EKVX NSCLC): > 100 µM
- TGI (HCC-2998 colon): > 100 µM
- TGI (HCT-116 colon): > 100 µM
- TGI (HCT-15 colon): > 100 µM
- TGI (HL-60(TB) leukemia): > 100 µM
- TGI (HOP-62 NSCLC): > 100 µM
- TGI (HOP-92 NSCLC): > 100 µM
- TGI (HS 578T breast): > 100 µM
- TGI (HT29 colon): > 100 µM
- TGI (IGROV1 ovarian): > 100 µM
- TGI (K-562 leukemia): > 100 µM
- TGI (KM12 colon): > 100 µM
- TGI (LOX IMVI melanoma): > 100 µM
- TGI (M14 melanoma): > 100 µM
- TGI (MALME-3M melanoma): > 100 µM
- TGI (MCF7 breast): > 100 µM
- TGI (MDA-MB-231 breast): > 100 µM
- TGI (MDA-MB-435): > 100 µM
- TGI (MOLT-4 leukemia): > 100 µM
- TGI (NCI-H226 lung): > 100 µM
- TGI (NCI-H23 lung): > 100 µM
- TGI (NCI-H460 lung): > 100 µM
- TGI (NCI-H522 lung): > 100 µM
- TGI (NCI/ADR-RES ovarian): > 100 µM
- TGI (OVCAR-3 ovarian): > 100 µM
- TGI (OVCAR-4 ovarian): > 100 µM
- TGI (OVCAR-5 ovarian): > 100 µM
- TGI (OVCAR-8 ovarian): > 100 µM
- TGI (PC-3 prostate): > 100 µM
- TGI (RPMI-8226 leukemia): > 100 µM
- TGI (RXF 393 renal): > 100 µM
- TGI (SF-268 CNS): > 100 µM
- TGI (SF-295 CNS): > 100 µM
- TGI (SF-539 CNS): > 100 µM
- TGI (SK-MEL-2 melanoma): > 100 µM
- TGI (SK-MEL-28 melanoma): > 100 µM
- TGI (SK-MEL-5 melanoma): > 100 µM
- TGI (SK-OV-3 ovarian): > 100 µM
- TGI (SN12C renal): > 100 µM
- TGI (SNB-19 CNS): > 100 µM
- TGI (SNB-75 CNS): > 100 µM
- TGI (SR leukemia): > 100 µM
- TGI (SW-620 colon): > 100 µM
- TGI (T-47D breast): > 100 µM
- TGI (TK-10 renal): > 100 µM
- TGI (U251 CNS): > 100 µM
- TGI (UACC-257 melanoma): > 100 µM
- TGI (UACC-62 melanoma): > 100 µM
